This is an account of results in article PMC8347595, “N-Skatyltryptamines—Dual 5-HT6R/D2R Ligands with Antipsychotic and Procognitive Potential” (Molecules, 2021).

Read-outs that look alike come from different tables or passages of the source.

As a reminder, the EC50 is the concentration at which the effect is half-maximal. What is called Papp is the rate of passage across a membrane or cell layer, normalised by area and donor concentration.

The target in data set [1] is T1, Human Serotonin 5-HT6R (Homo sapiens, UniProt P50406).
T1 construct: host or cells: 1321N1 (frozen recombinant cells)
T1 sequence (P50406 whole entry): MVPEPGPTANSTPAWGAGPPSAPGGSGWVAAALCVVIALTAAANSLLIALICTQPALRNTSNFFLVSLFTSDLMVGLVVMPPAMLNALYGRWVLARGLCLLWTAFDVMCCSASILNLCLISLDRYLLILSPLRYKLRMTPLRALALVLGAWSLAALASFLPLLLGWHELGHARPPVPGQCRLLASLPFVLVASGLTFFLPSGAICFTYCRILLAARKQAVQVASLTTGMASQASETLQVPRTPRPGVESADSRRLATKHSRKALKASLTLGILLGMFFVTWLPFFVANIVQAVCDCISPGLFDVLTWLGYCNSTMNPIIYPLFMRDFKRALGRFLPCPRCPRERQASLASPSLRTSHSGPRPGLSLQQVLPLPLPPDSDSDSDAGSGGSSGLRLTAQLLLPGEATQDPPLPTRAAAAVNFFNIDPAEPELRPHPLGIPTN
Briefly: 5-HT6R functional assay, antagonistic mode (cAMP induced by 5-CT, 1321N1 cells). Type of data set: cell-based. To be noted: antagonistic mode, 5-CT 1000 nM; read-out: 5-HT6 Kb. The method, then: (§1) The properties of compounds to inhibit cAMP production induced by a 5-HT6R agonist 5-CT (1000 nM) was evaluated. Compounds were tested in triplicate at eight concentrations (10^−11–10^−4 M). The level of cAMP was measured using frozen recombinant 1321N1 cells expressing the Human Serotonin 5-HT6R (PerkinElmer). Total cAMP was measured using the LANCE cAMP Detection Kit (PerkinElmer), according to the manufacturer’s instructions. For quantification of cAMP levels, 2000 cells/well ([…]) were incubated with a mixture of compounds ([…]) for 30 min at room temperature in a 384-well white opaque microtiter plate. After incubation, the reaction was stopped and cells were lysed by the addition of […] of working solution ([…] ULight-anti-cAMP) for 1 h at room temperature. Time-resolved fluorescence resonance energy transfer (TR-FRET) was detected by an Infinite M1000 Pro (Tecan) using instrument settings from the LANCE cAMP Detection Kit manual. […] The agonistic properties of compounds were determined with an analogous procedure, but without stimulation with 5-CT [10, 36].

In data set [2] the target is T2, D2R (Homo sapiens, UniProt P14416). Briefly: Radioligand binding assay, [3H]-raclopride displacement.
T2 sequence (P14416 whole entry): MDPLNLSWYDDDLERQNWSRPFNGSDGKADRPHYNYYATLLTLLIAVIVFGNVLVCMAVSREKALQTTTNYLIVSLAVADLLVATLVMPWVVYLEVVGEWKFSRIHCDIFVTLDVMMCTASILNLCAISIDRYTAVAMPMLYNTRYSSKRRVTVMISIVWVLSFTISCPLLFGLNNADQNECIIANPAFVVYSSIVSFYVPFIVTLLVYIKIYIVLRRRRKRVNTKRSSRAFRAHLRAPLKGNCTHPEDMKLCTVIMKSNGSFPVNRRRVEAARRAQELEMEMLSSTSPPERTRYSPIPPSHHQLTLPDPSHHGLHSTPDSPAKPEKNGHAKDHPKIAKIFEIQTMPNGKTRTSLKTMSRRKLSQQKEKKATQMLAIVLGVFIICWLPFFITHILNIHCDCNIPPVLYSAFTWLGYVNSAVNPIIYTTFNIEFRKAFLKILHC
In another data set the target is T3, 5-HT1AR (Homo sapiens, UniProt P08908).
T3 sequence (P08908 1-422): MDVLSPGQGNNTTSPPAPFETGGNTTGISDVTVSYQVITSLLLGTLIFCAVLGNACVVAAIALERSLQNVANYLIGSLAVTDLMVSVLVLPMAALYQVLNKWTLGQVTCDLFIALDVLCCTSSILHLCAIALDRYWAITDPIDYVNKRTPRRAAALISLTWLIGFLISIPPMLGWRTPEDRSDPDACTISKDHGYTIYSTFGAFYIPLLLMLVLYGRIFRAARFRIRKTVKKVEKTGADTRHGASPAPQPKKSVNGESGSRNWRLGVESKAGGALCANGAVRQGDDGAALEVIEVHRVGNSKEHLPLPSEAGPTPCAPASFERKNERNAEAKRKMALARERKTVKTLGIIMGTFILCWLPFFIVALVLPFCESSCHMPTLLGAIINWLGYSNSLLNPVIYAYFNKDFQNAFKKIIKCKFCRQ
In words: Radioligand binding assay, [3H]-8-OH-DPAT displacement. To be noted: pKi 5-HT1A, Table 1.

The target of data set [3] is T4, 5-HT2AR (Homo sapiens, UniProt P28223). In words: 5-HT2AR function (no method given).
T4 sequence (P28223 whole entry): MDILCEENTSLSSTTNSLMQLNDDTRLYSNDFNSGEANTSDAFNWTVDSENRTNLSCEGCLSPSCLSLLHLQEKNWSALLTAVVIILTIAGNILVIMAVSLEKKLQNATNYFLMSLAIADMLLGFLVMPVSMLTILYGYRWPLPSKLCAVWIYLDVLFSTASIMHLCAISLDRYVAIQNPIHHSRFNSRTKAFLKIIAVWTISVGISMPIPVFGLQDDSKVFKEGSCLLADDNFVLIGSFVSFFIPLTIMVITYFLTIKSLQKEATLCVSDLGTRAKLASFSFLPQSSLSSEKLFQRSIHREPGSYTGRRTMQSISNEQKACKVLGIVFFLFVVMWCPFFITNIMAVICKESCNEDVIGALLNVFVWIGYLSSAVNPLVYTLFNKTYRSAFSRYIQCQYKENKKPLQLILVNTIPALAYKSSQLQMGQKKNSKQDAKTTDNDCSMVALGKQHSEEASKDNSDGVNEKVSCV
The target of the next data set is 5-HT6R (Homo sapiens, UniProt P50406). Briefly: Radioligand binding assay, [3H]-LSD displacement.
Chain of 5-HT6R (P50406 whole entry): as the sequence (P50406 whole entry) above
For a further data set, the target named is 5-HT7R (Homo sapiens, UniProt P34969). In words: Radioligand binding assay, [3H]-5-CT displacement.
Chain of 5-HT7R (P34969 1-432): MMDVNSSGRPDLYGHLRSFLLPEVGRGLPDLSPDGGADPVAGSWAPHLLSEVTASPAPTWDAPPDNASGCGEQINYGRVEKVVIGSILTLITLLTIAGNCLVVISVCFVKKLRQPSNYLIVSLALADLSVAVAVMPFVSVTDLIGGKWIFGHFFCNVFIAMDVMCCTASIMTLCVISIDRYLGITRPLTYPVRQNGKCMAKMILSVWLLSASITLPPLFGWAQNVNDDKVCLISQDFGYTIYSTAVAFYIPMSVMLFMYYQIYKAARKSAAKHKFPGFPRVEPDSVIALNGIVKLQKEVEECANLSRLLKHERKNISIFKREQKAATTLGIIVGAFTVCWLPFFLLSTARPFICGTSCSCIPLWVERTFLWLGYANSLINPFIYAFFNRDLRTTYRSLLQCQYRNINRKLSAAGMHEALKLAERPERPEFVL
Data set [4] deals with T4, 5-HT2AR. In words: Radioligand binding assay, [3H]-ketanserin displacement. Set-up: host or cells: CHO-K1; membrane preparation.
For data set [5], the target named is T2, D2R. Briefly: D2R functional assay, antagonist mode (cAMP, HEK293 cells). Type of data set: cell-based. Set-up: expressed in transfected cells. To be noted: for Kb: antagonistic mode, 100 nM quinpirole, read-out: D2 Kb. How it is done:
The supernatant was aspirated, and the cell pellet was resuspended in stimulation buffer (1 × HBSS, 5 mM HEPES, 0.5 mM IBMX, 0.1% BSA).
The functional properties of compounds were evaluated using the LANCE Ultra cAMP Detection Kit (PerkinElmer). D2 receptors in HEK293 cells are coupled to Gi subtype and decreased cAMP production. […] Each compound was tested in triplicate at eight concentrations (10^−11–10^−4 M).
For quantification of cAMP levels, cells (5 µL) were incubated with 5 µL mixture of compounds (tested ligand and forskolin with 100 nM quinpirole for antagonist binding mode) for 30 min at room temperature in 384-well white opaque microtiter plate (PerkinElmer). After incubation, the reaction was stopped and cells were lysed by the addition of 10 µL working solution (5 µL Eu-cAMP and 5 µL ULight-anti-cAMP). The assay plate was incubated for 1 h at room temperature. Time-resolved fluorescence resonance energy transfer (TR-FRET) signal was detected by an Infinite M1000 Pro (Tecan) using instrument settings from the LANCE Ultra cAMP Detection Kit manual.

Data set [6] can be described thus: Metabolic stability, incubation with mouse liver microsomes. Type of data set: in vitro ADME. To be noted: MLMs, prolonged incubation.
For data set [7] the following is noted: PAMPA.
For a further data set, the target named is T5, CYP3A4 (Homo sapiens, UniProt P08684).
T5 construct: purchased Promega (Madison, WI, USA)
T5 sequence (P08684 whole entry): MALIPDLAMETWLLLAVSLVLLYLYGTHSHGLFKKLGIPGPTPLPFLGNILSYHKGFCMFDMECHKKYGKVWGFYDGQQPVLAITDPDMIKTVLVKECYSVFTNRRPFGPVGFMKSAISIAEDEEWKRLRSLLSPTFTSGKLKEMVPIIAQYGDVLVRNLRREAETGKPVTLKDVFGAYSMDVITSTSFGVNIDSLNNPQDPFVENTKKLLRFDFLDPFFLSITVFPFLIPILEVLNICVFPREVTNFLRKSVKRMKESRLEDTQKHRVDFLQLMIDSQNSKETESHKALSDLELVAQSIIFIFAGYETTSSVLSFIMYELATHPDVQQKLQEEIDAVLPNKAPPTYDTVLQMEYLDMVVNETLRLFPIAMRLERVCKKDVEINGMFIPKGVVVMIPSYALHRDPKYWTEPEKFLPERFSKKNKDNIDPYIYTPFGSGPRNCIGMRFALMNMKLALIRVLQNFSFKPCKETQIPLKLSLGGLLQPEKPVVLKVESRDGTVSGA
In words: CYP3A4 P450-Glo luminescent assay. Type of data set: in vitro ADME. To be noted: compared to ketoconazole; 0.01 to 25 µM. The method, then:
The experiments were provided using commercially available luminescent CYP3A4 P450-Glo™ and CYP2D6 P450-Glo™ tests purchased from Promega (Madison, WI, USA). The enzymatic reactions were conducted in polystyrene, flat-bottom Nunc™ MicroWell™ 96-well microplates (Thermo Scientific, Waltham, MA, USA). The assays were carried out according to the procedures provided by the manufacturer, as described previously. Compounds were tested in triplicate at the final concentrations in a range from 0.01 to 25 µM for both isoforms of CYP450. The references of CYP3A4 and CYP2D6 inhibitors (ketoconazole and quinidine, respectively) were tested in a range from 0.001 to 10 µM. Tested compounds were incubated in 100 mM Tris-HCl buffer separately with CYP3A4 and CYP2D6 membranes and the NADPH Regeneration System for 30 min at room temperature in triplicate. The bioluminescent signal was measured after the addition of the Luciferin Detection Reagent by using a microplate reader EnSpire PerkinElmer (Waltham, MA, USA). Both reagents (NADPH Regeneration System and Luciferin Detection Reagent) were purchased from Promega (Madison, WI, USA).

A further data set deals with HepG2 cell line. In words: Hepatotoxicity assay, HepG2 viability. Type of data set: cell-based. To be noted: 1 μM, 72 h. The method, then:
To estimate the hepatotoxicity of compounds, the hepatoma HepG2 (ATCC® HB-8065TM) cell line was used according to previously described protocols. The CellTiter 96® AQueous Non-Radioactive Cell Proliferation Assay was obtained from Promega (Madison, WI, USA). The compounds were tested in quadruplicate at four concentrations (1–100 µM) for 72 h.

Data set [8] in a line: Metabolic stability, incubation with mouse liver microsomes. Type of data set: in vitro ADME. To be noted: MLMs, 50 µM, 2 h. How it is done:
The murine liver microsomes (MLMs) were purchased from Sigma-Aldrich (St. Louis, MO, USA). To determine metabolic pathways, the tested compounds (50 µM) were incubated with 100 mM Tris-HCl buffer at 37 °C with MLMs (1 mg/mL) and NADPH Regeneration System for 2 h. Reactions were quenched with cold, pure methanol and mixtures were centrifuged 14,000 g for 15 min. The supernatants were analyzed using LCMS. The additional MS ion fragmentation of the product and the substrate were performed to determine the most probable structure of the metabolite.
(Liver microsomes are a subcellular fraction often used to study metabolism.)

Data set [9] addresses T1, Human Serotonin 5-HT6R. In words: 5-HT6R functional assay, agonistic mode (cAMP, 1321N1 cells). To be noted: agonistic mode; read-out: 5-HT6 EC50. Type of data set: cell-based. How it is done:
as §1

Another data set can be described thus: in vitro. To be noted: PAMPA, pH 7.4. (In general: PAMPA measures passive passage across an artificial lipid membrane.)
Another data set concerns the target D2. Set-up: method as in Dupuis et al. (2008) [31]. To be noted: Figure 8; ref Dupuis et al. (2008) [31]; cited from earlier work.
The target of data set [10] is 5-HT6. To be noted: read-out: Ki 5-HT6; Figure 8; ref Dupuis et al. (2008) [31]; cited from earlier work.
For data set [11], the system named is 5-HT6. Set-up: method as in Dupuis et al. (2008) [31]. To be noted: Figure 8; ref Dupuis et al. (2008) [31]; cited from earlier work.
The mark [12] stands for this setting: Table 1, read-out: pKi 5-HT2A (converted).

With `c1ccc2c(CCNCc3c[nH]c4ccccc34)c[nH]c2c1` [Compound 1, [2-(1H-indol-3-yl)ethyl][(1H-indol-3-yl)methyl]amine], the Kb at Human Serotonin 5-HT6R [1] is 151 nM. For the same compound, the “pKi D2” value on D2R [2] (Table 1) is given as 7.22. For the same compound, the Ki is 1510 nM at 5-HT1AR; 172 nM at 5-HT6R (Ki 5-HT6, Figure 8); 174 nM at 5-HT6R (pKi 5-HT6, Table 1); 28800 nM on 5-HT7R; 20 nM at 5-HT2AR [4] (Ki 5-HT2A); 20 nM at 5-HT2AR [4] (pKi 5-HT2A, Table 1). The “5-HT2AR function in words” value at 5-HT2AR [3] is given as 5-HT2AR partial agonist.

As for `Clc1ccc2c(CCNCc3c[nH]c4ccccc34)c[nH]c2c1` [Compound 5], the values for the Kb at D2R [5] and at Human Serotonin 5-HT6R [1] were 104 nM and 136 nM, respectively. Also, the EC50 on D2R [5] (read-out: EC50 (D2 receptor, antagonistic function)) came out at 104 nM; on Human Serotonin 5-HT6R [9], 157 nM. For the same compound, in data set [6], the “number of hydroxylated metabolites” value is on record as “only one hydroxylated metabolite”. Also, the Ki on D2R [2] (Ki D2, Figure 8) is 155 nM; at D2R [2] (pKi D2, Table 1), 155 nM; on 5-HT1AR, 3310 nM; on 5-HT7R, 15800 nM; at 5-HT2AR [4] (setting [12]), 1170 nM. In data set [7], the permeability in words result was “medium permeability coefficients”. Besides, the “effect on CYP3A4 activity” value on CYP3A4 was “inducer of CYP3A4”. Moreover, in the data set with HepG2 cell line, the HepG2 cell viability is ~ 80 % of the control. In the data set on HepG2 cell line, the “effect on HepG2 proliferation in words” value was “slight antiproliferative effect”. Besides, the “Metabolic Pathway, metabolite M1” value in data set [8] is listed as “hydroxylation”. In addition, the Papp at 5 h, 200 µM in “in vitro” was determined as 7.09 ± 1.24 ×10⁻⁶ cm/s.

As for `Clc1ccc2c(CNCCc3c[nH]c4ccccc34)c[nH]c2c1` [Compound 14], the Kb at D2R [5] stood at 290 nM; at Human Serotonin 5-HT6R [1], 112 nM. Further, the Ki on D2R [2] (Ki D2, Figure 8) is 124 nM; at D2R [2] (pKi D2, Table 1) it was 123 nM; on 5-HT1AR, 1070 nM; at 5-HT6R (Ki 5-HT6, Figure 8), 90 nM; on 5-HT6R (pKi 5-HT6, Table 1), 89.1 nM; on 5-HT7R, 15800 nM. Also, the Ki on 5-HT2AR [4] (setting [12]) is 468 nM. For the same compound, the permeability in words entry in [7] is “medium permeability coefficients”. Moreover, the “effect on CYP3A4 activity” value at CYP3A4 is “only slightly inhibited”. Moreover, in the data set on HepG2 cell line, the HepG2 cell viability is ~ 80 % of the control. Besides, the “effect on HepG2 proliferation in words” value in the data set with HepG2 cell line is “slight antiproliferative effect”. Further, the “Metabolic Pathway, metabolite M1” value in [8] is reported as “hydroxylation hydroxylation”. In addition, in [8], the “Metabolic Pathway, metabolite M2” value is on record as “hydroxylation hydroxylation”. The same compound yielded a Papp at 5 h, 200 µM in the data set “in vitro” of 8.34 ± 1.33 ×10⁻⁶ cm/s.

In the case of `Clc1cccc2c(CNCCc3c[nH]c4ccccc34)c[nH]c12` [Compound 17], the Kb at D2R [5] was found to be 215 nM; at Human Serotonin 5-HT6R [1], 234 nM. The Ki on D2R [2] (Ki D2, Figure 8) is 51 nM; at D2R [2] (pKi D2, Table 1), 51.3 nM; on 5-HT1AR, 282 nM; at 5-HT6R (pKi 5-HT6, Table 1) it was 363 nM; at 5-HT7R, 1070 nM; on 5-HT2AR [4] (setting [12]), 3890 nM. For the same compound, in data set [7], the permeability in words result is “medium permeability coefficients”. For the same compound, the “effect on CYP3A4 activity” value at CYP3A4 is reported as “only slightly inhibited”. The HepG2 cell viability in the data set with HepG2 cell line is reported as ~ 80 % of the control. Besides, the “effect on HepG2 proliferation in words” value in the data set with HepG2 cell line is “slight antiproliferative effect”. Besides, the “Metabolic Pathway, metabolite M1” value in [8] is on record as “hydroxylation hydroxylation”. Also, the “Metabolic Pathway, metabolite M2” value in [8] was “hydroxylation hydroxylation”. Moreover, the Papp at 5 h, 200 µM in “in vitro” worked out at 8.42 ± 0.27 ×10⁻⁶ cm/s.

Regarding `O=C1Cc2cc(CCN3CCN(c4nsc5ccccc45)CC3)c(Cl)cc2N1` [Ziprasidone], the results for the Ki on D2 and at 5-HT6 [10] were 0.8 nM and 20 nM, respectively. The Kb with 5-HT6 [11] is 57.5 nM.
